# Source: patent US20250319115A1, “Compositions and Methods for Modulating Cytokines” (Flagship Pioneering Innovations VII, LLC, priority 2022, published 2025)
# Legend:
# IL-4 signaling pathway = assay: HEK-Blue IL-4 SEAP reporter assay; assay type: cell-based
# Experimental: The effects of putative inhibitors on pro-inflammatory cytokine pathways are assessed using HEK-Blue cells engineered for the detection of bioactive cytokines via activation of JAK/STAT pathways and subsequent expression of the SEAP reporter gene. Cells are treated with their relevant cytokines+/−peptides or control antibodies, and 20 hours after treatment activation of the relevant cytokine receptor is determined via SEAP expression through mixing cell supernatants with a Quanti-Blue colorimetric reagent and measuring optical density at 600 nm.
# Reporter lines HEK-Blue TL-4/TL-15/IFN-alpha were cultured in DMEM with GlutaMAX and 10% HI FBS (Gibco). Cells were seeded into black 96-well optical clear flat-bottomed PhenoPlates at densities of 25000 cells/well and 100 uL/well and allowed to rest overnight in a 37 C incubator with 5% CO2. After 24 hours, cells were treated with 10 μL of their relevant cytokines (StemCell Technologies) at the previously determined EC75 for activation (1.164 ng/mL for HEK-Blue IL-4, 2.26 ng/mL for HEK-Blue IL-15, and 0.456 ng/mL for HEK-Blue IFN-alpha), with or without 10 μL of peptides (5 uM final concentration) or control antibodies (1 ug/well). Cells were kept overnight in a 37 C incubator with 5% C02.
# 20-22 hours after treatment, 20 μL of the cell supernatants were collected and transferred to 96-well white flat opaque-bottom plates (Costar) and each sample was mixed with 180 μL of Quanti-Blue reagent. Colorimetric reactions were allowed to develop in a 37 C incubator with 5% C02 for a certain duration of time (3 hours for HEK-Blue IL-4, 2 hours for HEK-Blue IL-15, and 1 hour for IFN-alpha). Assay plates were then removed from the incubator and the optical density of each well was measured at 600 nm on a GloMax plate reader. Relative activation of the cytokine signaling pathway in question was determined by ratioing the optical density of each sample to the average optical density for the cytokine-only treated cells from the same plate.
# [1] = system: CD3/CD28 (TransAct) activated PBMCs; assay: PBMC cytokine release by Cytometric BeadArray, Inhibition format (peptide with anti-CD3/CD28 T-cell activator); assay type: cell-based, human; design: key to Inhibition by Analyte: IL-1b / Inhibition by Analyte: IL-2 / Inhibition by Analyte: TNF / Inhibition by Analyte: IP-10 / Inhibition by Analyte: IL-10: X = a hit with significant activation or inhibition of relevant cytokine release; details: peptide applied with anti-CD3/CD28 T-cell activator, 24 hours, supernatant CBA
# Experimental: Peripheral Blood Mononuclear Cells were seeded+/−the T-cell activator […] and +/−peptides for 24-48 hours. Cytokines were measured from the supernatant after incubation by CBA Cytometer.
# Thawing PBMCs: PBMCs were thawed by pre-warming TexMACS media (Miltenyi Biotech) in 20 ml aliquots-1-50 ml conical per donor. After the media was warmed to 37° C., cells were removed from liquid nitrogen and brought to the tissue culture hood. For each donor, 1 ml of media from the warmed aliquot was added to the frozen vial and mixed up and down. The media plus thawed cells were then added back to the 50 ml conical. This was repeated until all the cells were thawed and added to the 50 ml tube. Continue with other donors if used. Spin cells for 5 min at 400×g. Supernatant was aspirated and cells resuspended at ˜10*10^6 cells/ml (see vial for cell number).
# PBMC Plating: Frozen PBMCs from normal, healthy, human volunteers (StemCell Technologies) were thawed and plated at 250,000 cells/well. After PBMCs were thawed and resuspended at […], cells were then counted (Countess III, Thermo Scientific) and adjusted based on counts to […]. Take the number of PBMCs determined by number of wells for the experiment, for example, 10 wells would need 2.5*10^6 cells total or 0.250 ml. The cells needed for the experiment are then transferred to another conical tube. Warmed TexMACS media is added so that the final concentration is 250,000 cells/190 ul media, for example, 10 wells would need 1.9 ml (190 ul×10 wells) of media total minus 0.250 ml of cells (1.9 ml-0.250 ml) or 1.65 ml of media added to the 0.250 ml of cells. Add 190 ul of cells plus media to the 96 well U-bottom plate. Place in incubator until dilutions are made and ready.
# Peptide Dilutions: Ideally, all peptides should be at a starting concentration of at least 10 mM, especially for those in DMSO (ATCC) to reach a final concentration of 1 uM (H2O) or 0.5 uM (DMSO). Dilutions of all test articles should be made at 20× the final concentration, for example, a final concentration of 1 uM peptide would need to be made at 20 uM.
# Reagent Dilution: Dilutions are made in TexMACS media, enough for 10 ul/well in triplicate (30 ul of a 20×). Activator—CD3/CD28 (TransAct; Miltenyi Biotech) or cytokine will be at 21× and added after the 45-minute incubation with peptides. Be sure to include relevant controls—Positive: TransAct+Cells, Negative: Vehicle+Cells. Dilutions should also be made in a ultra-low binding plate (Corning).
# Assay Procedure: Peptide Treatment: Start assay by thawing the cells and plating in a 96 well, U-bottom tissue culture plate (Corning) as described above. Cell plates are placed in a tissue culture incubator (5% CO2, 37° C.). While cells are in the incubator, start making dilutions (optimally 1 hr or less) as described above. Cell plates are removed from the incubator and 10 ul of the 20× dilutions are added to the relevant wells. After the addition of inhibitors, cell plates are placed in the tissue culture incubator for 45 minutes. The plates are removed from the incubator and 10 ul of 21× TransAct is added to the relevant wells*. Plates are then returned to the incubator and incubated for 24 hours. After 24 hours, plates are spun for 5 minutes at 400×g.
# * Activation: This assay can be run in two different formats—Activation and Inhibition. The procedure is the same except no TransAct is needed in the peptide wells for Activation. TransAct is only needed in the control wells. The purpose of this procedure is to determine the possible response from peptides alone.
# Cytometric BeadArray (CBA): After the spin, supernatants (˜150 ul) are transferred to a new, ultra-low binding U-bottom plate. Supernatants are then frozen at −20° C. until thawed for CBA (BD) to determine levels of human IL-2, TNFα, IL-1b, IP-10, IL-10, and IFNg. CBA was run according to the manufacturers protocol.
# [2] = system: primary human CD8+ T cells; assay: T cell activation markers in isolated CD8+ T cells +/- CD3/CD28 (ELISA, CD69 flow cytometry); assay type: cell-based
# Experimental: To determine the effect of the Target Protein on T cell activity, the Target Protein, irrelevant proteins, a single amino acid mutant Target Protein and controls were applied to primary human T cells isolated from Peripheral Blood Mononuclear Cells (PBMCs)+/−CD3/CD28. 24 hours later the levels of extra-cellular CD69, IL-2, and TNFalpha (72 hours for IFN-gamma) were evaluated.
# Isolation of PBMCfrom Leukopak: The isolation of peripheral blood mononuclear cells (PBMC) from a leukopak sample was conducted using the EasySep™ Direct Human PBMC Isolation Kit (Cat #19654, StemCell Technologies, Vancouver, BC, Canada) following the manufacturer's instructions. A leukopak sample was prepared within a volume range of 125 mL and added to a T-75 cm2 cell culture flask. EDTA was added to the sample to achieve a final concentration of 6 mM. The Isolation Cocktail provided in the kit was added to the sample without vortexing, and the sample was mixed and incubated at room temperature (RT) for 5 minutes. EasySep buffer was added to double the original sample volume, followed by the addition of vortexed RapidSpheres™. The flask was placed into a magnet and incubated at RT for 5 minutes. The cell suspension was carefully pipetted into a new T-75 cm2 flask, and RapidSpheres™ were added to the enriched cells. The flask was placed back into the magnet for a second separation at RT for 5 minutes. Finally, the cell suspension was carefully pipetted into a new tube or centrifuge bottle, and the isolated PBMCs were ready for use.
# Isolation of primary human T-cells: Following the isolation of PBMCs, CD8^+ T cells were isolated using the EasySep™ Human CD8^+ T Cell Isolation Kit (Cat #17953, StemCell Technologies, Vancouver, BC, Canada) according to the manufacturer's instructions. The PBMC sample was prepared at a concentration of […] within a volume range of 2 mL and added to a 5 mL polystyrene round-bottom tube. The Isolation Cocktail provided in the kit (50 μL/mL of sample) was added to the sample without vortexing, mixed, and incubated at RT for 5 minutes. RapidSpheres™ were vortexed for 30 seconds to ensure even dispersion and then added to the sample at a concentration of 50 μL/mL of sample. The EasySep buffer was added to top up the sample to a total volume of 2.5 mL, and the sample was mixed by gently pipetting up and down 2-3 times. The tube (without lid) was placed into the magnet and incubated at RT for 3 minutes. After incubation, the magnet was picked up, and in one continuous motion, the magnet and tube were inverted, pouring the enriched cell suspension into a new tube. The isolated CD8^+ T cells were now ready for use.
# Peptide treatment: Isolated CD8^+ T cells were plated in a 96-well format plate at a density of 1×10^5 cells per well. […]
# [3] = CD8+ T cells, 10 μM, CD3/CD28, 24 hours, ELISA
Substance,inhibitor of the IL-4 signaling pathway (grade in words) (IL-4 signaling pathway; FIG. 9),"Relative activity (compared to cytokine only controls), Cytokine IL-4 (IL-4 signaling pathway; peptide 5 uM, cytokine at EC75, SEAP OD 600 nm) [%]",Inhibition by Analyte: IL-1b [1],Inhibition by Analyte: IL-2 [1],Inhibition by Analyte: IP-10 [1],Inhibition by Analyte: TNF [1],"T cell activation markers in CD8+ T cells (TNFα, IL-2, CD69) ([2]; 10 μM vs scrambled protein, with CD3/CD28 antibody cocktail, 24 hours)","T-cell activation marker IL-2 [2, 3]","T-cell activation marker TNFalpha [2, 3]","T-cell activation marker CD69 ([2]; CD8+ T cells, 10 μM, CD3/CD28, 24 hours, flow cytometry)"
SEQ ID NO: 4227: novel peptide capable of inhibiting pro-inflammatory cytokine pathways (LAVFVIIRNLSDYLSFFFPFLLELLAVEEHHAYL; listed as Homo sapiens),moderate,−50,,,,,,,,
"SEQ ID NO: 4524: novel, secreted peptide that enhances T cell activation (LDFIRAFLLLLVASVPGKIGSQNLTAQRPPVATSFLQMESSEPTVRK; listed as Homo sapiens)",,,X,X,X,X,increases,significantly up-regulates,significantly up-regulates,significantly up-regulates
